Blank lines part the entries; values can stand above or below the molecule they belong to.
How the values were obtained:
Format in all cases: cell-based
[1] = system: E. coli JMI 10768; assay: MIC, antibacterial and synergistic activity; conditions: E. coli JMI 10768, CTX-M15 (Weak ESBL); substance alone
[2] = system: E. coli JMI 4080; assay: MIC, antibacterial and synergistic activity; conditions: Escherichia coli, JMI4080, E. coli JMI 4080, Tem-10; substance alone
[3] = system: E. coli JMI 4103; assay: MIC, antibacterial and synergistic activity; conditions: Escherichia coli, JMI4103; E. coli JMI 4103, KPC-2, Tem-1, CMY-Type; substance alone
[4] = system: metallo β-lactamase producing bacteria; assay: MIC in combination with various antibiotics against metallo β-lactamase producing bacteria (Tables 10-12); conditions: substance alone
Protocol: (§1) In the Tables 10-12, compounds of the present invention were tested in combination with various antibiotics against metallo β-lactamase producing bacteria.

[5] = system: P. aerug JMI 149; assay: MIC, antibacterial and synergistic activity; conditions: substance alone
Protocol: as §1

[6] = system: K. pneumo JMI 2693; assay: MIC, antibacterial and synergistic activity; conditions: K. pneumo JMI 2693, NDM-1 (Cpase); substance alone
Protocol: as §1

[7] = system: K. pneumo JMI 2697; assay: MIC, antibacterial and synergistic activity; conditions: K. pneumo JMI 2697, IMP-4 (Cpase); substance alone
Protocol: as §1

[8] = system: E. coli ATCC 25922; assay: MIC, antibacterial and synergistic activity; conditions: Escherichia coli, ATCC25922, E. coli ATCC 25922, enzyme Wt; substance alone
Protocol: as §1

[9] = system: E. coli JMI 10767; assay: MIC, antibacterial and synergistic activity; conditions: E. coli JMI 10767, Wt; substance alone
Protocol: as §1

[10] = system: E. coli JMI 2692; assay: MIC, antibacterial and synergistic activity; conditions: Escherichia coli, JMI2692; E. coli JMI 2692, NDM-1, TEM-1, CTX-M-15; substance alone
Protocol: as §1

[11] = system: A. baumanii JMI 2659; assay: MIC, antibacterial and synergistic activity; conditions: Acinetobacter baumannii, JMI2659, substance alone
Protocol: as §1

[12] = system: P. aerug JMI 2686; assay: MIC, antibacterial and synergistic activity; conditions: substance alone
[13] = system: E. coli JMI 10770; assay: MIC, antibacterial and synergistic activity; conditions: E. coli JMI 10770, CTX-M15 (Hyper ESBL); substance alone
[14] = system: E. coli JMI 11103; assay: MIC, antibacterial and synergistic activity; conditions: substance alone
[15] = system: K. pneumo JMI 2674; assay: MIC, antibacterial and synergistic activity; conditions: K. pneumo JMI 2674, CTX-M15 (ESBL); substance alone
[16] = system: K. pneumo JMI 4106; assay: MIC, antibacterial and synergistic activity; conditions: substance alone
[17] = system: K. pneumo JMI 2681; assay: MIC, antibacterial and synergistic activity; conditions: substance alone
[18] = system: K. pneumo JMI 4088; assay: MIC, antibacterial and synergistic activity; conditions: substance alone
[19] = Enterobacter cloacae, Enterobacter cloacae isolate 25, IMP-4
[20] = Enterobacter cloacae, Enterobacter cloacae isolate 1280, VIM-5
[21] = Enterobacter cloacae, Enterobacter cloacae isolate 1471, VIM-1
[22] = Enterobacter cloacae, Enterobacter cloacae isolate 1874, IMP-21
[23] = Enterobacter cloacae, Enterobacter cloacae isolate 3686, IMP-1
[24] = Escherichia coli, Escherichia coli isolate 13, IMP-1
[25] = Klebsiella aerogenes, Enterobacter aerogenes isolate 47683, VIM-12
[26] = Klebsiella oxytoca, Klebsiella oxytoca isolate 31141, VIM-23
[27] = Klebsiella pneumoniae, Klebsiella pneumoniae isolate 38, NDM-1
[28] = Providencia stuartii, Providencia stuartii isolate 26582, VIM-1
[29] = P. aerug JMI 2686, KPC-2 (Cpase)
[30] = K. pneumo JMI 4106, KPC-3, TEM-1, SHV-12, SHV-141
[31] = K. pneumo JMI 4088, KPC-3 (Cpase)
[32] = Citrobacter freundii, Citrobacter freundii isolate 49469, NDM-1
[33] = Enterobacter cloacae, Enterobacter cloacae isolate 4, VIM-6
[34] = Enterobacter cloacae, Enterobacter cloacae isolate 10, IMP-26
[35] = Enterobacter cloacae, Enterobacter cloacae isolate 1068, VIM-2
[36] = Enterobacter cloacae, Enterobacter cloacae isolate 53477, NDM-1
[37] = Escherichia coli, Escherichia coli isolate 17, NDM-1
[38] = Escherichia coli, Escherichia coli isolate 49, NDM-1
[39] = Escherichia coli, Escherichia coli isolate 53749, NDM-1
[40] = Klebsiella aerogenes, Enterobacter aerogenes isolate 8397, VIM-1
[41] = Klebsiella oxytoca, Klebsiella oxytoca isolate 24825, IMP-26
[42] = Klebsiella pneumoniae, Klebsiella pneumoniae isolate 16, VIM-5
[43] = Serratia marcescens, Serratia marcescens isolate 35, IMP-4
[44] = Serratia marcescens, Serratia marcescens isolate 36098, IMP-19

Compound: C[C@H]1[C@H](NC(=O)/C(=N\OC(C)(C)C(=O)O)c2csc(N)n2)C(=O)N1S(=O)(=O)O [Aztreonam, aztreonam]
- MIC alone [1]: 8 µg/mL
- MIC [2]: 64 µg/mL
- MIC [3]: > 512 µg/mL
- MIC [4, 19]: 64 µg/mL
- MIC [4, 20]: 8 µg/mL
- MIC [4, 21]: 64 µg/mL
- MIC [4, 22]: ≤ 0.12 µg/mL
- MIC [4, 23]: 32 µg/mL
- MIC [4, 24]: 16 µg/mL
- MIC [4, 25]: 4 µg/mL
- MIC [4, 26]: 8 µg/mL
- MIC [4, 27]: 64 µg/mL
- MIC [4, 28]: 32 µg/mL
- MIC alone ([5]; P. aerug JMI 149, Bla+++D+): 512 µg/mL
- MIC ([5]; P. aerug JMI 149, enzyme Bla+++D+): 512 µg/mL
- MIC [6]: > 512 µg/mL
- MIC [7]: > 512 µg/mL
- MIC [8]: 0.25 µg/mL
- MIC alone [9]: ≤1 µg/mL
- MIC [10]: > 512 µg/mL
- MIC ([11]; A. baumanii JMI 2659, Ges-14 (Cpase)): 512 µg/mL
- MIC ([11]; A. baumanii JMI 2659, enzyme Ges-14 (Cpase)): 512 µg/mL
- MIC [12, 29]: 512 µg/mL
- MIC alone [12, 29]: >512 µg/mL
- MIC ([12]; P. aerug JMI 2686, enzyme KPC-2 (Cpase)): 512 µg/mL
- MIC alone [13]: 64 µg/mL
- MIC alone ([14]; E. coli JMI 11103, CTX-M15 (Intermediate ESBL)): 16 µg/mL
- MIC ([14]; Escherichia coli, JMI11103, E. coli JMI 11103, CTX-M15 (Intermediate ESBL)): 32 µg/mL
- MIC alone [15]: 32 µg/mL
- MIC [16, 30]: > 512 µg/mL
- MIC alone [16, 30]: 512 µg/mL
- MIC alone ([16]; K. pneumo JMI 4106, enzyme KPC-3, TEM-1, SHV-12, SHV-141): 512 µg/mL
- MIC ([17]; K. pneumo JMI 2681, Oxa-48 (Cpase)): 512 µg/mL
- MIC ([17]; K. pneumo JMI 2681, enzyme Oxa-48 (Cpase)): 512 µg/mL
- MIC [18, 31]: > 512 µg/mL
- MIC alone [18, 31]: 512 µg/mL
- MIC alone ([18]; K. pneumo JMI 4088, enzyme KPC-3 (Cpase)): 512 µg/mL

- MIC [4, 32]: > 64 µg/mL
- MIC [4, 33]: 64 µg/mL
- MIC [4, 34]: 64 µg/mL
- MIC [4, 19]: 8 µg/mL
- MIC [4, 35]: 8 µg/mL
- MIC [4, 20]: 4 µg/mL
- MIC [4, 21]: 4 µg/mL
- MIC [4, 22]: 4 µg/mL
- MIC [4, 23]: 4 µg/mL
- MIC [4, 36]: 4 µg/mL
- MIC [4, 24]: 16 µg/mL
- MIC [4, 37]: 4 µg/mL
- MIC [4, 38]: 4 µg/mL
- MIC [4, 39]: 4 µg/mL
- MIC [4, 40]: > 64 µg/mL
- MIC [4, 25]: > 64 µg/mL
- MIC [4, 41]: > 64 µg/mL
- MIC [4, 26]: > 64 µg/mL
- MIC [4, 42]: > 64 µg/mL
- MIC [4, 27]: > 64 µg/mL
- MIC [4, 28]: > 64 µg/mL
- MIC [4, 43]: > 64 µg/mL
- MIC [4, 44]: > 64 µg/mL
Compound: O=C(NO[C@H]1CCNC1)[C@@H]1CC[C@@H]2CN1C(=O)N2OS(=O)(=O)O [Ex. 2, (2S,5R)-7-Oxo-N-[(3S)-pyrrolidin-3-yloxy]-6-(sulfooxy)-1,6-diazabicyclo[3.2.1]octane-2-carboxamide]

- MIC [4, 32]: > 64 µg/mL
- MIC [4, 33]: 64 µg/mL
- MIC [4, 34]: 64 µg/mL
- MIC [4, 19]: 4 µg/mL
- MIC [4, 35]: 4 µg/mL
- MIC [4, 20]: 4 µg/mL
- MIC [4, 21]: 4 µg/mL
- MIC [4, 22]: 2 µg/mL
- MIC [4, 23]: 4 µg/mL
- MIC [4, 36]: 8 µg/mL
- MIC [4, 24]: 2 µg/mL
- MIC [4, 37]: 2 µg/mL
- MIC [4, 38]: 2 µg/mL
- MIC [4, 39]: 2 µg/mL
- MIC [4, 40]: > 64 µg/mL
- MIC [4, 25]: > 64 µg/mL
- MIC [4, 41]: > 64 µg/mL
- MIC [4, 26]: > 64 µg/mL
- MIC [4, 42]: > 64 µg/mL
- MIC [4, 27]: > 64 µg/mL
- MIC [4, 28]: > 64 µg/mL
- MIC [4, 43]: > 64 µg/mL
- MIC [4, 44]: > 64 µg/mL
Compound: O=C(NO[C@H]1CCCNC1)[C@@H]1CC[C@@H]2CN1C(=O)N2OS(=O)(=O)O [Ex. 4, (2S,5R)-7-Oxo-N-[(3S)-piperidin-3-yloxy]-6-(sulfooxy)-1,6-diazabicyclo[3.2.1]octane-2-carboxamide]

- MIC [4, 32]: > 64 µg/mL
- MIC [4, 33]: 61 µg/mL
- MIC [4, 34]: 61 µg/mL
- MIC [4, 19]: 4 µg/mL
- MIC [4, 35]: 4 µg/mL
- MIC [4, 20]: 4 µg/mL
- MIC [4, 21]: 2 µg/mL
- MIC [4, 22]: 2 µg/mL
- MIC [4, 23]: 2 µg/mL
- MIC [4, 36]: 2 µg/mL
- MIC [4, 24]: 1 µg/mL
- MIC [4, 37]: 2 µg/mL
- MIC [4, 38]: 2 µg/mL
- MIC [4, 39]: 2 µg/mL
- MIC [4, 40]: > 64 µg/mL
- MIC [4, 25]: > 64 µg/mL
- MIC [4, 41]: > 64 µg/mL
- MIC [4, 26]: > 64 µg/mL
- MIC [4, 42]: > 64 µg/mL
- MIC [4, 27]: > 64 µg/mL
- MIC [4, 28]: > 64 µg/mL
- MIC [4, 43]: > 64 µg/mL
- MIC [4, 44]: > 64 µg/mL
Compound: CC(=O)NNC(=O)[C@@H]1CC[C@@H]2CN1C(=O)N2OS(=O)(=O)O [Ex. 40, (2S,5R)-N′-acetyl-7-oxo-6-(sulfooxy)-1,6-diazabicyclo[3.2.1]octane-2-carbohydrazide]
